Test results as given in patent publication US7396858B2, “Biguanide derivative and therapeutic agent for diabetes containing the same” (Chugai Seiyaku Kabushiki Kaisha, priority 2002, dated 2008).
Several values for one entry are separate records, joined by “and”; a condition that tells them apart may be missing. Equal values may be shown once.

System: female mice (C57BLKS/J-m +/+ Lepr<db> (db/db))
Test: Oral glucose tolerance test (blood glucose and blood lactic acid levels)
Type: in vivo
Conditions: subcutaneous, AUC up to 2 hours vs solvent group; for Blood glucose reduction rate (%): 30 min before oral glucose 3 g/kg; for Blood lactic acid level increase rate (%): oral glucose tolerance test
Protocol: Measurement of blood glucose reduction rate and blood lactic acid levels by the aforementioned oral glucose tolerance test may be carried out by a publicly known method, and preferred methods are described below. Specifically, 11- to 17-week-old female mice (C57BLKS/J-m +/+ Lepr (db/db)) are starved for 18-24 hours. A group of five or six mice is used for the test. Blood is sampled from the tail for measurement of the blood glucose levels and blood lactic acid levels before treatment as controls. After sampling, the biguanide derivative is dissolved in phosphate-buffered physiological saline at a suitable concentration and subcutaneously administered at a dose of 5 ml/kg. As controls are prepared mice administered only the solvent. Glucose is then administered orally at a dose of 3 g/6 ml/kg at 30 minutes after administration of the compound or solvent as an oral glucose tolerance test. Blood is sampled from the tail for measurement of the blood glucose levels and the blood lactic acid levels 30 minutes, 1 hour and 2 hours after glucose administration. The blood glucose levels are measured using a New Blood Sugar Test (Roche Diagnostics) or a Glucose CII-Test Wako (Wako Pure Chemical Industries, Ltd.). The blood lactic acid levels are measured using an “Asuka Sigma” (Sigma Diagnostics).
The blood glucose reduction rate and the blood lactic acid level increase rate are calculated according to the following formulas. Blood glucose reduction rate (%)=[(AUC for blood glucose increase level of solvent-administered group−AUC for blood glucose increase level of compound-administered group)/AUC for blood glucose increase level of solvent-administered group]×100
The blood lactic acid level increase rate is calculated according to the following formula. Blood lactic acid level increase rate (%)=[(AUC for blood lactic acid level of compound-administered group−AUC for blood lactic acid level of solvent-administered group)/AUC for blood lactic acid level of solvent-administered group]×100
Eleven- to seventeen-week-old female mice (C57BLKS/J-m +/+ Lepr (db/db)) were starved for 18-24 hours, and a group of six mice was used for the test. Blood was sampled from the tail for measurement of the blood glucose levels and blood lactic acid levels before treatment. […] As a control, the solvent alone was subcutaneously administered to mice similarly.
Glucose was then administered orally at a dose of 3 g/6 ml/kg at 30 minutes after administration of the compound or solvent as an oral glucose tolerance test. Blood was sampled from the tail for measurement of the blood glucose levels and blood lactic acid levels 30 minutes, 1 hour and 2 hours after glucose administration. The blood glucose levels were measured using a New Blood Sugar Test (Roche Diagnostics) or a Glucose CII-Test Wako (Wako Pure Chemical Industries, Ltd.). The blood lactic acid levels were measured using an “Asuka Sigma” (Sigma Diagnostics).

Row | SMILES | Blood glucose reduction rate (%) (dosage 50 mg/kg) | Blood glucose reduction rate (%) (dosage 75 mg/kg) | Blood lactic acid level increase rate (%) (dosage 75 mg/kg) | Blood glucose reduction rate (%) (dosage 37.5 mg/kg) | Blood lactic acid level increase rate (%) (dosage 37.5 mg/kg) | Blood glucose reduction rate (%) (dosage 200 mg/kg)
1 | N=C(N)NC(=N)NCc1ccoc1 [1-[(Furan-3-yl)methyl]biguanide, 1-[(furan-3-yl)methyl]biguanide] | 40.3% | 65.5% | 9.7% |  |  | 
2 | [H]/N=C(/N)N/C(=N/[H])NCCc1ccccc1 [Phenformin] |  | 64.5% and 78.0% and 60.8% and 61.4% and 72.8% and 69.6% | 93.6% and 151.6% and 94.7% and 120.8% and 141.1% and 114.8% | 39.5% and 72.7% | 46.4% and 83.1% | 
3 | CN(C)C(=N)N=C(N)N [Metformin] |  |  |  |  |  | 56.0% and 41.8%
